From US20030118653A1, “Quick dissolving oral mucosal drug delivery device with moisture barrier coating” (Lavipharm Laboratories Inc., priority 2001, published 2003)

Test: Bioavailability of sildenafil from film with water soluble inert filler
Assay type: in vivo
Conditions: incorporated in a film with water soluble inert filler xylitol
Source text: A further parameter affecting the uptake of an active agent or combination of active agents from the quick dissolving oral mucosal drug delivery devices of the present invention is the manner in which the active agent or combination of active agents is dispersed in the delivery device. For example, the active agent or combination of active agents may be dispersed as colloidal particles or be microencapsulated within the delivery device or alternatively may be mixed throughout the delivery device as a reagent during casting. In another example, the active agent can form a solid dispersion with a water soluble inert filler for purposes of increasing the solubility of the active agent when released from the inner layer thereby enhancing bioavailability of the active agent. […] In another example, a bitter active agent can form saliva insoluble complex with water insoluble polymers for the purpose of taste masking.

- bioavailability: enhance the bioavailability
Structure (SMILES): CCCc1nn(C)c2c(=O)[nH]c(-c3cc(S(=O)(=O)N4CCN(C)CC4)ccc3OCC)nc12 [sildenafil]
